Here are results for 3 compounds from article PMC11962395 (Molecular Cancer Therapeutics, 2024).

For data set [1], the system named is patient-derived xenograft TM00298. The settings on record: TM00298 model; cited from earlier work.
A short description of data set [2]: Animal body weights during treatment in prostate cancer mouse models. It is filed as in vivo, mice.
Data set [3] relates to human VCaP tumor xenografts. The settings on record: intact VCaP xenograft model; cited from earlier work.
The subject of data set [4] is TMPRSS–ERG. The data set is described as follows: ERG protein levels in tumors, enzalutamide-resistant VCaP model.
Data set [5] concerns VCaP cells. The data set is described as follows: VCaP cell proliferation assay. The settings on record: for antiproliferative effect with increasing R1881: 300 nmol/L bavdegalutamide or 1,000 nmol/L enzalutamide, co-treatment with increasing R1881, 5 days. The format is cell-based, human.
In data set [6] the test system is enzalutamide-resistant VCaP xenograft tumors. Kind of data set: Tumor growth inhibition, enzalutamide-resistant VCaP xenograft model. The settings on record: 20 mg/kg oral every day for 28 days. The format is in vivo, mice.
Data set [7] relates to PSA. The settings on record: TM00298 model; cited from earlier work.
Data set [8] concerns PSA. Kind of data set: Plasma PSA levels, patient-derived xenograft TM00298. The note with it: 10 mg/kg oral every day for 20 days, 16 hours after last dose. The format is in vivo, mice.
For data set [9], the system named is AR. Kind of data set: AR degradation in CRBN-KO LNCaP and 22Rv1 cells with dox-inducible CRBN. The format is cell-based.
For data set [10], the system named is PSA synthesis in LNCaP/AR cells. The data set is described as follows: PSA suppression assay in LNCaP/AR cells. The note with it: 48 h, read-out: IC50 (inhibition of PSA synthesis). It is filed as cell-based.
Data set [11] deals with rat prostate tissue. Kind of data set: Rat prostate involution study. The format is in vivo, rats. The note with it: 15 and 45 mg/kg oral every day for 10 days.
In data set [12] the test system is abiraterone-resistant tumors. The settings on record: 10 mg/kg oral every day for 19 days, phase III.
The subject of data set [13] is VCaP xenografts. The data set is described as follows: Tumor growth inhibition, castrated VCaP xenograft model. It is filed as in vivo, mice.
Data set [14] has as its target SALL4 (Homo sapiens, UniProt Q96SW2+Q9UJQ4). The data set is described as follows: SALL4 degradation in SK-N-DZ cells. The format is cell-based.
Data set [15] concerns nearly 4,000 detectable proteins in VCaP cells. The data set is described as follows: Proteomic screen in VCaP cells. The note with it: 10 nmol/L, 8 hours, filter >2× degradation, P <0.05. It is filed as cell-based, human.
Data set [16] has as its target IKZF3 (Aiolos) (Homo sapiens, UniProt Q9UKT9). The data set is described as follows: Neomorphic substrate degradation in Ramos cells: IKZF3. It is filed as cell-based. The settings on record: increasing concentrations, 24 hours.
In data set [17] the target is IKZF1 (Ikaros) (Homo sapiens, UniProt Q13422). The data set is described as follows: Neomorphic substrate degradation in Ramos cells: IKZF1. It is filed as cell-based. The settings on record: increasing concentrations, 24 hours.
Data set [18] addresses CK1α (Homo sapiens, UniProt P48729+Q96SW2). Kind of data set: Neomorphic substrate degradation in Ramos cells: CK1α. The format is cell-based.
In data set [19] the target is G1–S phase transition 1 protein (Homo sapiens, UniProt P15170). Kind of data set: Neomorphic substrate degradation in Ramos cells: GSPT1. The format is cell-based. The note with it: increasing concentrations, 24 hours.
The mark [20] stands for this setting: enzalutamide-resistant VCaP model.
[21] abbreviates: vs in vitro functional efficacy of 1 to 30 nmol/L.

Chain of SALL4 (Q9UJQ4 whole entry): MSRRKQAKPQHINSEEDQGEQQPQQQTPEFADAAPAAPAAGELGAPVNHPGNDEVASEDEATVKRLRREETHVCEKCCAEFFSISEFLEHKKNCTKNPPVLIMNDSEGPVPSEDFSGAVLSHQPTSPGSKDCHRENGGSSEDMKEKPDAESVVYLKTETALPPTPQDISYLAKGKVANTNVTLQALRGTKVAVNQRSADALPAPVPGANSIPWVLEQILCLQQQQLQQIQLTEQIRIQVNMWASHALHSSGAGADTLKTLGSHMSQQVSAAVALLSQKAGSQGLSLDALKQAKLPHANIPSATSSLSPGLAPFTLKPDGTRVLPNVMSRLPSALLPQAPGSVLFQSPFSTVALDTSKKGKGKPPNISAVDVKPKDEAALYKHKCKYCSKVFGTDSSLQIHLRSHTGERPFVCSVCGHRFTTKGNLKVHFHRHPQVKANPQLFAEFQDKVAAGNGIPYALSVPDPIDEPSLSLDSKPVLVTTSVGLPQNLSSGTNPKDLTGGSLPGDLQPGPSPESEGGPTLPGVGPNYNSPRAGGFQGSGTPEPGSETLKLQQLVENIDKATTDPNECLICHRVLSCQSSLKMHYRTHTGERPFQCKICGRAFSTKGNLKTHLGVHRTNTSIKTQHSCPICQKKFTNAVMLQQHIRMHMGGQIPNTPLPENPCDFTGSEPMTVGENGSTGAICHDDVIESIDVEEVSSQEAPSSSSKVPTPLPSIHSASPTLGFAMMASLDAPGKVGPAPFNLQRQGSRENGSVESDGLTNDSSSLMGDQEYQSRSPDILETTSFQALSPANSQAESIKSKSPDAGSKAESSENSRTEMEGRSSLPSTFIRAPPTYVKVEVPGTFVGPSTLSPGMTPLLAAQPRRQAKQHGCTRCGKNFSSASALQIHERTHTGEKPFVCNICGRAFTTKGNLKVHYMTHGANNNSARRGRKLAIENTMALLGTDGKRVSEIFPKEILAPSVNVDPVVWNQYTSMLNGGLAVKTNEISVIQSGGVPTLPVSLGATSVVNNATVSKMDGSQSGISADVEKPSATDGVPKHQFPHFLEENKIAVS
Chain of SALL4 (Q96SW2 whole entry): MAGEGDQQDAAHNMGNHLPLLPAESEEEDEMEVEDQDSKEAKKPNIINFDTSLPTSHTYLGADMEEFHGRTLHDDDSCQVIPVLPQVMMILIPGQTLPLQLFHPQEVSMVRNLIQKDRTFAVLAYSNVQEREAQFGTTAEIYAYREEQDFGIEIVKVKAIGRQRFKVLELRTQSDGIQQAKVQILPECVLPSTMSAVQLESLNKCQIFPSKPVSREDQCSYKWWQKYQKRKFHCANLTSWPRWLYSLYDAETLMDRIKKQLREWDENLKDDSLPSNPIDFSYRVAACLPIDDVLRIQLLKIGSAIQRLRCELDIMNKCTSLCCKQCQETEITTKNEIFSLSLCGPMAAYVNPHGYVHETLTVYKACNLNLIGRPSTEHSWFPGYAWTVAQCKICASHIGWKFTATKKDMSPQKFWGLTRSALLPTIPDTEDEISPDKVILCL
Chain of SALL4 (Q16531 whole entry partner): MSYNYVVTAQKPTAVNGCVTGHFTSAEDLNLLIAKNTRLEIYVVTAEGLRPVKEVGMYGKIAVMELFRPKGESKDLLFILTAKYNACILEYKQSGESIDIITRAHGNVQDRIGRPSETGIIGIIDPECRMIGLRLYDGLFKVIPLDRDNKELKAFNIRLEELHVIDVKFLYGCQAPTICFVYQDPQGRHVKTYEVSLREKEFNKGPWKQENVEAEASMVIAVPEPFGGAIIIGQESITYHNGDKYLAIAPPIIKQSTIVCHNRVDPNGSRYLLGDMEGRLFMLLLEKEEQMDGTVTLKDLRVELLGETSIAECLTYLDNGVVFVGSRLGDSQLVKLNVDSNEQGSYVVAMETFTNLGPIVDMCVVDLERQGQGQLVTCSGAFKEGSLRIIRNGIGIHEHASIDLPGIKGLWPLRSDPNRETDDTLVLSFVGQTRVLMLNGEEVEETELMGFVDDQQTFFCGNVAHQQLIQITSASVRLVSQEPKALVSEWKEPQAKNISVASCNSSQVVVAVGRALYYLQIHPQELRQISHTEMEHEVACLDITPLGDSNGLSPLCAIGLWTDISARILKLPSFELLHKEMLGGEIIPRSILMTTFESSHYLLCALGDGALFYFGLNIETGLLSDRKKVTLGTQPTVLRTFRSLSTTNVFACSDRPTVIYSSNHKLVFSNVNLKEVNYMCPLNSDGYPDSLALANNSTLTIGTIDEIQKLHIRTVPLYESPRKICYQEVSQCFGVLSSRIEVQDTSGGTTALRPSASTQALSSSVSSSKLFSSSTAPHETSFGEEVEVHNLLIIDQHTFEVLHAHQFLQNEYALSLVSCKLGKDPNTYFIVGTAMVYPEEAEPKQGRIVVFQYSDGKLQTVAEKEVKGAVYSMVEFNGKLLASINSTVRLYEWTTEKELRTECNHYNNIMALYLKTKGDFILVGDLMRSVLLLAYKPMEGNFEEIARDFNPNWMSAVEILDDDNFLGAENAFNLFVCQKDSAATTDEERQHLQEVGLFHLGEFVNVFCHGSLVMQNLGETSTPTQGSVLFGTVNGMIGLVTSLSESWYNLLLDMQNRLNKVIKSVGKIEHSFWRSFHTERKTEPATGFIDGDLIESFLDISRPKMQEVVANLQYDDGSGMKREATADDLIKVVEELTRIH
Chain of CK1α (P48729 whole entry): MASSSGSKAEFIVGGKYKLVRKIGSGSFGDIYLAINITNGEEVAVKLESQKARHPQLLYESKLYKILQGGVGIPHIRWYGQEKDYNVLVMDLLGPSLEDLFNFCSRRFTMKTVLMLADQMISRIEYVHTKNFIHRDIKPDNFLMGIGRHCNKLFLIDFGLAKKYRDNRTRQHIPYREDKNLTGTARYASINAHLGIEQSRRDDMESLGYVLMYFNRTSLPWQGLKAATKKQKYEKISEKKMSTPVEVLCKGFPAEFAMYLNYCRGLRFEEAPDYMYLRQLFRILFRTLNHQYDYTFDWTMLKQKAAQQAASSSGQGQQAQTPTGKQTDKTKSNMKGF
Chain of CK1α (Q96SW2 whole entry): as the sequence (Q96SW2 whole entry) above
Chain of CK1α (Q16531 whole entry partner): as the sequence (Q16531 whole entry partner) above
Chain of G1–S phase transition 1 protein (Q16531 whole entry): as the sequence (Q16531 whole entry partner) above
Chain of G1–S phase transition 1 protein (Q96SW2 whole entry, further chain): as the sequence (Q96SW2 whole entry) above
Chain of G1–S phase transition 1 protein (P15170 whole entry): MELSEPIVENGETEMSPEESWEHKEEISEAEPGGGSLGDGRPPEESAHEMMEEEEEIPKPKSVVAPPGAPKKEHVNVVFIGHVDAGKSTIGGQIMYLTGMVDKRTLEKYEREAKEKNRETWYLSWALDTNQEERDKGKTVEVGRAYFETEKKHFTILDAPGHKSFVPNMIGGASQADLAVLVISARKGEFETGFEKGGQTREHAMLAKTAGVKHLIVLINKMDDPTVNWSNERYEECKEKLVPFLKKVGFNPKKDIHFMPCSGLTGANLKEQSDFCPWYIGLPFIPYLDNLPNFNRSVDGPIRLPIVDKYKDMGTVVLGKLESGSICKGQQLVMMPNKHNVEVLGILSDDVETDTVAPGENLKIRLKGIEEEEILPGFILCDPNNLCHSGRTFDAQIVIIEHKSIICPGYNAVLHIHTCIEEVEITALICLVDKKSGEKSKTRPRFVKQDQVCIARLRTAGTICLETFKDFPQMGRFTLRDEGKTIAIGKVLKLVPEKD
Chain of IKZF1 (Ikaros) (Q96SW2 whole entry partner): as the sequence (Q96SW2 whole entry) above
Chain of IKZF1 (Ikaros) (Q16531 whole entry partner): as the sequence (Q16531 whole entry partner) above
Chain of IKZF1 (Ikaros) (Q13422 whole entry): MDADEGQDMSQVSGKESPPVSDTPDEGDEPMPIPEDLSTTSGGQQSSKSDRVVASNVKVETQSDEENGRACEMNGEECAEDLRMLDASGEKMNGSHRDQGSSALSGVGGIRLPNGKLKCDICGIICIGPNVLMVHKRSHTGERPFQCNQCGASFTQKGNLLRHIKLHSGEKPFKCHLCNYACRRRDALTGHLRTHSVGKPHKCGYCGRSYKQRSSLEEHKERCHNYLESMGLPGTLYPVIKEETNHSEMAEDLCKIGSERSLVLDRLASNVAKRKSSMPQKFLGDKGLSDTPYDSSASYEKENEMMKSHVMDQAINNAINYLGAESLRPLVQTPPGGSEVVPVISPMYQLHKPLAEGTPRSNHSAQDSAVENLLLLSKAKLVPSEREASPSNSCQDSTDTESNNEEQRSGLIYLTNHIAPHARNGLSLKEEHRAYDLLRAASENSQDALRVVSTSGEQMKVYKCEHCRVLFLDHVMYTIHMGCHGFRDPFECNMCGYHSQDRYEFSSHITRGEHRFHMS
Chain of IKZF3 (Aiolos) (Q96SW2 whole entry partner): as the sequence (Q96SW2 whole entry) above
Chain of IKZF3 (Aiolos) (Q16531 whole entry partner): as the sequence (Q16531 whole entry partner) above
Chain of IKZF3 (Aiolos) (Q9UKT9 whole entry): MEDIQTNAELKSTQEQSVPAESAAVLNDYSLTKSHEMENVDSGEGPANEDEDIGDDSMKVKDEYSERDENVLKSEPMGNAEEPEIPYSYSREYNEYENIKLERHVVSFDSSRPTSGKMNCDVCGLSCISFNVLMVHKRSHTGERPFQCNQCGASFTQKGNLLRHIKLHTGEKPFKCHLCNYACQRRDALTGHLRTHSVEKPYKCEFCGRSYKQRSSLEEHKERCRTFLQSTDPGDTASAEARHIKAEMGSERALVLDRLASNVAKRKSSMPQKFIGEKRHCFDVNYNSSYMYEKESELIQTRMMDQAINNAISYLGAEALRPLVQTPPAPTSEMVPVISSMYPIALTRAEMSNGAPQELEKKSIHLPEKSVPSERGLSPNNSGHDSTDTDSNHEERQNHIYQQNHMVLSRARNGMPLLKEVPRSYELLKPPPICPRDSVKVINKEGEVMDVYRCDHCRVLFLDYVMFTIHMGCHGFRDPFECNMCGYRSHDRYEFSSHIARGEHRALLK

In the case of `CNC(=O)c1ccc(N2C(=S)N(c3ccc(C#N)c(C(F)(F)F)c3)C(=O)C2(C)C)cc1F` [Enzalutamide, reference compound], the “effect on tumor growth” value is reported as “without affecting tumor growth” in data set [1] and “little to no effect on tumor growth” in data set [3]. Moreover, the body weights result in data set [2] (castrated VCaP xenograft model) and in [2] (setting [20]) was “Body weights were maintained” in each case. In addition, the “reduction in AR target gene TMPRSS–ERG in tumors” value in data set [4] (20 mg/kg enzalutamide) is given as “this effect did not occur”. For the same compound, in data set [5] (charcoal-stripped serum), the “antiproliferative effect with increasing R1881” value is “antiproliferative only at R1881 concentrations <0.1 nmol/L”. Besides, the TGI entry in data set [6] is recorded as “TGI was not observed”. In addition, in [7], the “reduction of PSA levels” value is listed as “approximately 50%”.
Take `C[C@]1(O)CC[C@H]2[C@@H]3CCC4=CC(=O)CCC4=C3C=C[C@@]21C` [R1881, reference compound]: in data set [5] (VCaP cells, charcoal-stripped serum), the “effect of R1881 alone on proliferation” value was “increased the proliferation of VCaP cells”.
Regarding `N#Cc1ccc(O[C@H]2CC[C@H](NC(=O)c3ccc(N4CCC(CN5CCN(c6cc7c(cc6F)C(=O)N(C6CCC(=O)NC6=O)C7=O)CC5)CC4)nn3)CC2)cc1Cl` (some centres unmarked) [Bavdegalutamide, N-[(1r,4r)-4-(3-chloro-4-cyanophenoxy)cyclohexyl]-6-[4-({4-[2-(2,6-dioxopiperidin-3-yl)-6-fluoro-1,3-dioxo-2,3-dihydro-1H-isoindol-5-yl]piperazin-1-yl}methyl)piperidin-1-yl]pyridazine-3-carboxamide], the “reduction of circulating PSA levels” value in [8] is 93%. In addition, the “cereblon dependence of AR degradation” value in [9] was “cereblon dependent”. Also, the IC50 in data set [10] turned out to be 10 nM; in data set [5] (Homo sapiens, VCaP, 96 h, read-out: IC50 (inhibition of VCaP cell proliferation)), 20 nM. In [11], the “rat prostate involution vs enzalutamide 100 mg/kg” value is recorded as “significantly higher activity than enzalutamide”. Also, in [12], the “volume of abiraterone-resistant tumors” value is “reduced the volume of these abiraterone-resistant tumors”. Also, the TGI in [13] (1 mg/kg oral) stood at 101%; in data set [13] (3 mg/kg oral) it was 109%. For the same compound, the SALL4 degradation result in [14] (SK-N-DZ cells, 1,000 nmol/L, 24 hours) is on record as “modestly degraded”. Further, the “window between AR and SALL4 modulation” value in [14] (setting [21]) is recorded as ≥ 10 ×. Further, in [15], the “proteins degraded in proteomic screen” value is “degradation of only AR”. For the same compound, the body weights entry in data set [2] (castrated VCaP xenograft model) and in data set [2] (setting [20]) was “Body weights were maintained” each time. In addition, the “reduction in AR target gene TMPRSS–ERG in tumors” value in [4] (3 or 10 mg/kg bavdegalutamide) is listed as “Concomitant reductions”. For the same compound, the “IKZF3 (Aiolos) degradation” value in data set [16] is “did not lead to degradation”. For the same compound, the “IKZF1 (Ikaros) degradation” value in data set [17] is “did not lead to degradation”. Further, in [18] (Ramos cells, 300 to 1,000 nmol/L, 24 hours), the CK1α degradation result is “only modest degradation”. In addition, in [18] (setting [21]), the “window between AR and CK1α modulation” value was ≥ 10 ×. In addition, the “antiproliferative effect with increasing R1881” value in data set [5] (charcoal-stripped serum) is on record as “antiproliferative effects even in the presence of 1 nmol/L R1881”. Besides, the “G1–S phase transition 1 protein degradation” value in data set [19] is “did not lead to degradation”.
